Laboratory results published in patent US20080194585A1, “Fungicidal Pyrazine Derivatives” (priority 2005, published 2008).
Marks after values point to notes of the source that are not given here.

Tests used:
[1] = test system: Plasmopara viticola; assay: Test D: grape downy mildew, spray after inoculation of grape seedlings; type: in vivo; conditions: 200 ppm
Source text: Upon removal, disease ratings were made. […] A dash (-) indicates no test results.

[2] = test system: Phytophthora infestans; assay: whole plant or invertebrate; type: in vivo; conditions: 200 ppm
[3] = test system: Septoria tritici; assay: Test J: wheat leaf blotch, preventive spray on wheat seedlings; type: in vivo
Source text: A dash (-) indicates no test results.

[4] = test system: fusarium graminearium; assay: Test I: wheat head scab, preventive spray on wheat seedlings; conditions: 200 ppm
Procedure: (the causal agent of wheat head scab) and incubated in a saturated atmosphere at 20° C. for 72 h, and then moved to a growth chamber at 22° C. for 5 days, after which disease ratings were made.

[5] = test system: Puccinia recondita f. sp. tritici; assay: Test K: wheat leaf rust, preventive spray on wheat seedlings
[6] = test system: Botrytis cinerea; assay: Test E: tomato botrytis, preventive spray on tomato seedlings
[7] = test system: Septoria nodorum; assay: Test H: wheat glum blotch, preventive spray on wheat seedlings
Procedure: (the causal agent of wheat glum blotch) and incubated in a saturated atmosphere at 20° C. for 48 h, and then moved to a growth chamber at 22° C. for 5 days, after which disease ratings were made.

[8] = test system: Erysiphe graminis f. sp. tritici; assay: Test L: wheat powdery mildew, preventive spray on wheat seedlings
[9] = test system: Pythium aphanidermatum; assay: Test A: bluegrass pythium blight, preventive spray on bluegrass seedlings; conditions: 200 ppm
[10] = test system: Rhizoctonia oryzae; assay: Test G: turf brown patch, preventive spray on creeping bent grass seedlings
Procedure: (the causal agent of turf brown patch) and incubated in a saturated atmosphere at 27° C. for 24 h, and then moved to a growth chamber at 27° C. for 5 days, after which disease ratings were made.

[11] = test system: Colletotrichum orbiculare; assay: Test B: cucumber Colletotrichum anthracnose, preventive spray on cucumber seedlings

SMILES	Test D disease control rating [1] [%]	Test F disease control rating [2] [%]	Test J disease control rating ([3]; 200 ppm) [%]	Test I disease control rating [4] [%]	Test K disease control rating ([5]; 200 ppm) [%]	Test E disease control rating ([6]; 200 ppm) [%]	Test H disease control rating ([7]; 200 ppm) [%]	Test L disease control rating ([8]; 200 ppm) [%]	Test A disease control rating [9] [%]	Test G disease control rating ([10]; 200 ppm) [%]	Test B disease control rating ([11]; 200 ppm) [%]	Test J disease control rating ([3]; 40 ppm (*))	Test K disease control rating ([5]; 40 ppm (*))	Test E disease control rating ([6]; 40 ppm (*))	Test H disease control rating ([7]; 40 ppm (*))	Test L disease control rating ([8]; 40 ppm (*))	Test G disease control rating ([10]; 40 ppm (*))	Test B disease control rating ([11]; 40 ppm (*))
C=C(C)Cn1c(-c2c(F)cccc2F)c(Cl)nc(-n2cccn2)c1=O [compound 30]	0	0	100	0	100	99	100	100	0	98	99	–	–	–	–	–	–	–
O=c1c(-n2cccn2)nc(Cl)c(-c2c(F)cccc2F)n1CC1CCCCC1 [compound 31]	0	0	100	0	88	97	73	69	0	0	0	–	–	–	–	–	–	–
CCC(C)Cn1c(-c2c(F)cccc2F)c(Cl)nc(-n2ccnn2)c1=O (stereo not shown) [compound 60]	0	0	–	0	–	–	–	–	0	–	–	40* %	68* %	95* %	0* %	0* %	0* %	0* %
CCC(C)Cn1c(-c2c(F)cccc2F)c(Cl)nc(-n2ccnc2)c1=O (stereo not shown) [compound 61]	0	0	40	0	0	0	0	0	0	0	0	–	–	–	–	–	–	–
CCC(C)Cn1c(-c2c(F)cccc2F)c(Cl)nc(-n2nc(C)cc2C)c1=O (stereo not shown) [compound 62]	0	0	15	0	83	31	0	0	0	0	0	–	–	–	–	–	–	–
CCC(C)Cn1c(-c2c(F)cccc2F)c(Cl)nc(-n2ccc(C(F)(F)F)n2)c1=O (stereo not shown) [compound 63]	0	0	90	0	89	0	0	0	0	72	0	–	–	–	–	–	–	–
CCC(C)Cn1c(-c2c(F)cccc2F)c(Cl)nc(-n2nc(C)cc2C(F)(F)F)c1=O (stereo not shown) [compound 64]	16	0	71	0	97	54	0	0	0	24	0	–	–	–	–	–	–	–
CCC(C)Cn1c(-c2c(F)cccc2F)c(Cl)nc(-n2ccc(Br)n2)c1=O (stereo not shown) [compound 65]	0	0	100	0	98	99	0	0	0	83	33	–	–	–	–	–	–	–
CC(C)Cn1c(-c2c(F)cccc2F)c(Cl)nc(NN=C2CCCC2)c1=O [compound 73]	0	0	59	0	80	97	0	0	0	0	0	–	–	–	–	–	–	–
Cc1ccc(-c2c(Cl)nc(-n3cncn3)c(=O)n2CC(C)C)c(C)c1 [compound 79]	0	0	100	0	97	100	100	92	0	46	83	–	–	–	–	–	–	–
CC(C)Cn1c(-c2cc(Br)c3c(c2)OCO3)c(Cl)nc(-n2cccn2)c1=O [compound 89]	0	0	0	0	0	0	0	0	0	0	0	–	–	–	–	–	–	–
CC(C)Cn1c(-c2c(F)cccc2F)c(Cl)nc(-c2cnn(C)c2)c1=O [compound 100]	0	0	3	0	26	0	0	13	0	0	0	–	–	–	–	–	–	–
CC(C)Cn1c(-c2c(F)cccc2F)c(Cl)nc(-c2nccn2C)c1=O [compound 102]	0	0	0	0	0	0	0	0	0	0	0	–	–	–	–	–	–	–
CC(C)Cn1c(-c2c(F)cccc2F)c(Cl)nc(-c2ccnn2C)c1=O [compound 103]	0	0	3	0	0	0	0	0	0	0	0	–	–	–	–	–	–	–
